Data taken from US20060069132A1, “Azolecarboxamide herbicides” (priority 2004, published 2006).

Tests used:
[1] = test system: morningglory; assay: Test B pre-/postemergence herbicide test; format: in vivo, Ipomoea coccinea; conditions: for Morningglory plant response rating: postemergence
Method in brief: (§1)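 Test chemicals in a non-phytotoxic solvent mixture with surfactant were applied preemergence to seeded species and postemergence to plants 2-18 cm tall (1- to 4-leaf stage); rice and barnyardgrass were also tested in a flooded paddy at the 2-leaf stage. Visual rating versus controls after 13-15 days in greenhouse, scale 0 (no effect) to 100 (complete control).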

[2] = test system: giant foxtail; assay: Test B pre-/postemergence herbicide test; format: in vivo, Setaria faberi; conditions: for Foxtail, Giant plant response rating: postemergence
Method in brief: (§2)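 Plants compared with untreated controls 13–15 days post-treatment and given a visual 0–100 injury score. Applications: preemergence to seeds; postemergence at 1- to 4-leaf (2–18 cm); paddy species flooded, 2-leaf stage. Vehicle non-phytotoxic, surfactant included.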

[3] = test system: blackgrass; assay: Test B postemergence herbicide test; format: in vivo, Alopecurus myosuroides; conditions: postemergence, visual rating, scale 0 (no effect) to 100 (complete control)
Method in brief: (§3)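 Paddy species grown to the 2-leaf stage under flooding; blackgrass sprayed postemergence at 2–18 cm (1- to 4-leaf stage). Plants kept in a greenhouse for 13 to 15 days, then visually rated against controls on 0 (no effect) to 100 (complete control).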

[4] = test system: wild oat; assay: Test B postemergence herbicide test; format: in vivo, Avena fatua; conditions: postemergence
Method in brief: (§4)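 Greenhouse test; postemergence application to plants at 1–4 leaves (2–18 cm); paddy species at 2 leaves; evaluated visually vs controls at 13–15 days; scale 0–100 (100 = complete control).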

[5] = test system: wheat; assay: Test B postemergence herbicide test; format: in vivo, Triticum aestivum; set-up: key to Wheat plant response rating: 0 = no effect, 100 = complete control; conditions: postemergence
Method in brief: as §4

[6] = test system: barnyardgrass; assay: Test C flooded paddy test; format: in vivo, Echinochloa crus-galli
Method in brief: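 Plants were grown to the 1- to 4-leaf stage (2–18 cm) and then treated postemergence, or grown to the 2-leaf stage for the flooded paddy test. They were held in a greenhouse for 12 to 14 days and then scored by eye against controls, where 0 is no effect and 100 is complete control.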

[7] = test system: rice; assay: Test C flooded paddy test; format: in vivo, Oryza sativa
Method in brief: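 Postemergence sprays applied to plants 2 to 18 cm tall (1- to 4-leaf stage); paddy species grown to 2-leaf stage under flooding. After 12 to 14 days in greenhouse, visual rating versus untreated controls on 0–100 scale (0 no effect, 100 complete control).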

[8] = test system: small flower umbrella sedge; assay: Test B flooded paddy test; format: in vivo, Cyperus difformis; conditions: 1000 g ai/ha, scale 0 to 100 (0 no effect, 100 complete control)
Method in brief: as §3

[9] = test system: barnyardgrass; assay: Test B pre-/postemergence herbicide test; format: in vivo, Echinochloa crus-galli; conditions: for Barnyardgrass plant response rating: postemergence, scale 0 (no effect) to 100 (complete control)
Method in brief: as §1

[10] = test system: cocklebur; assay: Test B pre-/postemergence herbicide test; format: in vivo, Xanthium strumarium; conditions: for Cocklebur plant response rating: postemergence, scale 0 (no effect) to 100 (complete control)
Method in brief: as §1

[11] = test system: velvetleaf; assay: Test B pre-/postemergence herbicide test; format: in vivo, Abutilon theophrasti; conditions: for Velvetleaf plant response rating: postemergence
Method in brief: as §2

[12] = test system: corn; assay: Test B pre-/postemergence herbicide test; format: in vivo, Zea mays; conditions: for Corn plant response rating: postemergence
Method in brief: as §2

[13] = test system: ducksalad; assay: Test C flooded paddy test; format: in vivo, Heteranthera limosa
[14] = test system: rice; assay: Test B flooded paddy test; format: in vivo, Oryza sativa; conditions: 1000 g ai/ha, scale 0 to 100 (0 no effect, 100 complete control)
Method in brief: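 Formulated test chemicals went onto postemergence plants measuring 2 to 18 cm, at one to four leaves. For the paddy assay, species had reached two leaves. Scoring took place 13–15 days later by eye, relative to untreated plants, using 0 for no effect up to 100 for full control.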

[15] = test system: large crabgrass; assay: Test B pre-/postemergence herbicide test; format: in vivo, Digitaria sanguinalis; conditions: for Crabgrass, Large plant response rating: postemergence
Method in brief: as §2

[16] = test system: barnyardgrass; assay: Test B flooded paddy test; format: in vivo, Echinochloa crus-galli; conditions: 1000 g ai/ha, scale 0 to 100 (0 no effect, 100 complete control)
Method in brief: as §3

[17] = test system: pigweed; assay: Test B pre-/postemergence herbicide test; format: in vivo, Amaranthus retroflexus; conditions: for Pigweed plant response rating: postemergence
Method in brief: as §2

[18] = test system: smallflower umbrella sedge; assay: Test C flooded paddy test; format: in vivo, Cyperus difformis
[19] = test system: Surinam grass; assay: Test B pre-/postemergence herbicide test; format: in vivo, Urochloa decumbens; conditions: for Surinam Grass plant response rating: postemergence
Method in brief: as §2

[20] = test system: lambsquarters; assay: Test B pre-/postemergence herbicide test; format: in vivo, Chenopodium album; conditions: for Lambsquarters plant response rating: postemergence
Method in brief: as §2

[21] = test system: ducksalad; assay: Test B flooded paddy test; format: in vivo, Heteranthera limosa; conditions: 1000 g ai/ha, scale 0 to 100 (0 no effect, 100 complete control)
Method in brief: as §3

[22] = test system: rice; assay: Test B pre-/postemergence herbicide test; format: in vivo, Oryza sativa; conditions: 0 = no effect, 100 = complete control, preemergence
Method in brief: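 Greenhouse pot assay with simultaneous preemergence (treated seed) and postemergence (2–18 cm seedlings) applications of surfactant-containing, non-phytotoxic solvent formulations. Response scored visually 13–15 days later on a 0–100 scale, 100 meaning complete control.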

[23] = 125 g ai/ha, 0 = no effect, 100 = complete control, preemergence
[24] = 500 g ai/ha, visual rating, 0 = no effect, 100 = complete control, preemergence
[25] = 125 g ai/ha, visual rating, scale 0 (no effect) to 100 (complete control)
[26] = 500 g ai/ha, scale 0 to 100, 0 is no effect, 100 is complete control
[27] = 62 g ai/ha, scale 0 to 100 (0 no effect, 100 complete control)
[28] = 125 g ai/ha, scale 0 to 100 (0 no effect, 100 complete control)
[29] = 250 g ai/ha, scale of 0 to 100, 0 is no effect, 100 is complete control
[30] = 500 g ai/ha, visual rating after 12 to 14 days, scale 0 to 100 (0 no effect, 100 complete control)

Q: For `CCn1nc(C(C)(C)C)cc1C(=O)Nc1cccc(C(=O)N2CCCC2)n1` [Compound 245], which “Morningglory plant response rating (0 to 100 scale)” value [1, 23] is on record?
A: 10

Q: And the “Plant response rating, Morningglory” value [1, 24]?
A: 20

Q: What about the “Morningglory plant response rating” value [1, 25] of the same compound?
A: 10

Q: And the “Morningglory plant response rating” value [1, 26]?
A: 60

Q: What about the “Foxtail, Giant plant response rating (0 to 100 scale)” value [2, 23] of the same compound?
A: 60

Q: And the “Plant response rating, Foxtail, Giant” value [2, 24]?
A: 90

Q: And the “Foxtail, Giant plant response rating” value [2, 25]?
A: 30

Q: And the “Foxtail, Giant plant response rating” value [2, 26]?
A: 60

Q: And the “Blackgrass plant response rating” value ([3]; 125 g ai/ha)?
A: 0

Q: And the “Blackgrass plant response rating” value ([3]; 500 g ai/ha)?
A: 0

Q: And the “Oat, Wild plant response rating” value [4, 25]?
A: 20

Q: And the “Oat, Wild plant response rating” value [4, 26]?
A: 30

Q: What about the “Wheat plant response rating” value [5, 25] of the same compound?
A: 10

Q: And the “Wheat plant response rating” value [5, 26]?
A: 20

Q: What about the “Barnyardgrass plant response rating” value [6, 27] of the same compound?
A: 0

Q: What about the “Barnyardgrass plant response rating” value [6, 28] of the same compound?
A: 35

Q: What about the “Barnyardgrass plant response rating” value [6, 29] of the same compound?
A: 45

Q: And the “Plant response rating, Barnyardgrass” value [6, 30]?
A: 70

Q: And the “Rice plant response rating” value [7, 27]?
A: 25

Q: And the “Rice plant response rating” value [7, 28]?
A: 65

Q: What about the “Rice plant response rating” value [7, 29] of the same compound?
A: 70

Q: What about the “Plant response rating, Rice” value [7, 30] of the same compound?
A: 70

Q: And the “Sedge, Umbrella plant response rating” value [8]?
A: 50

Q: And the “Barnyardgrass plant response rating (0 to 100 scale)” value [9, 23]?
A: 70

Q: What about the “Plant response rating, Barnyardgrass” value [9, 24] of the same compound?
A: 100

Q: What about the “Barnyardgrass plant response rating” value ([9]; 125 g ai/ha, visual rating) of the same compound?
A: 40

Q: And the “Barnyardgrass plant response rating” value ([9]; 500 g ai/ha, visual rating)?
A: 70

Q: And the “Cocklebur plant response rating (0 to 100 scale)” value [10, 23]?
A: 0

Q: And the “Plant response rating, Cocklebur” value [10, 24]?
A: 0

Q: What about the “Cocklebur plant response rating” value ([10]; 125 g ai/ha, visual rating) of the same compound?
A: 40

Q: What about the “Cocklebur plant response rating” value ([10]; 500 g ai/ha, visual rating) of the same compound?
A: 80

Q: And the “Velvetleaf plant response rating (0 to 100 scale)” value [11, 23]?
A: 40

Q: What about the “Plant response rating, Velvetleaf” value [11, 24] of the same compound?
A: 90

Q: What about the “Velvetleaf plant response rating” value [11, 25] of the same compound?
A: 70

Q: And the “Velvetleaf plant response rating” value [11, 26]?
A: 80

Q: What about the “Corn plant response rating (0 to 100 scale)” value [12, 23] of the same compound?
A: 0

Q: And the “Plant response rating, Corn” value [12, 24]?
A: 10

Q: What about the “Corn plant response rating” value [12, 25] of the same compound?
A: 10

Q: And the “Corn plant response rating” value [12, 26]?
A: 30

Q: And the “Ducksalad plant response rating” value [13, 27]?
A: 60

Q: And the “Ducksalad plant response rating” value [13, 28]?
A: 75

Q: And the “Ducksalad plant response rating” value [13, 29]?
A: 75

Q: What about the “Plant response rating, Ducksalad” value [13, 30] of the same compound?
A: 75

Q: And the “Rice plant response rating” value [14]?
A: 80

Q: And the “Crabgrass, Large plant response rating (0 to 100 scale)” value [15, 23]?
A: 60

Q: And the “Plant response rating, Crabgrass, Large” value [15, 24]?
A: 100

Q: And the “Crabgrass, Large plant response rating” value [15, 25]?
A: 10

Q: And the “Crabgrass, Large plant response rating” value [15, 26]?
A: 50

Q: What about the “Barnyardgrass plant response rating” value [16] of the same compound?
A: 90

Q: And the “Pigweed plant response rating (0 to 100 scale)” value [17, 23]?
A: 100

Q: And the “Plant response rating, Pigweed” value [17, 24]?
A: 100

Q: What about the “Pigweed plant response rating” value [17, 25] of the same compound?
A: 60

Q: What about the “Pigweed plant response rating” value [17, 26] of the same compound?
A: 80

Q: And the “Sedge, Umbrella plant response rating” value [18, 27]?
A: 55

Q: And the “Sedge, Umbrella plant response rating” value [18, 28]?
A: 70

Q: And the “Sedge, Umbrella plant response rating” value [18, 29]?
A: 70

Q: What about the “Plant response rating, Sedge, Umbrella” value [18, 30] of the same compound?
A: 70

Q: And the “Surinam Grass plant response rating (0 to 100 scale)” value [19, 23]?
A: 40

Q: And the “Plant response rating, Surinam Grass” value [19, 24]?
A: 80

Q: And the “Surinam Grass plant response rating” value [19, 25]?
A: 30

Q: What about the “Surinam Grass plant response rating” value [19, 26] of the same compound?
A: 60

Q: What about the “Lambsquarters plant response rating (0 to 100 scale)” value [20, 23] of the same compound?
A: 90

Q: And the “Plant response rating, Lambsquarters” value [20, 24]?
A: 100

Q: And the “Lambsquarters plant response rating” value [20, 25]?
A: 80

Q: What about the “Lambsquarters plant response rating” value [20, 26] of the same compound?
A: 90

Q: And the “Ducksalad plant response rating” value [21]?
A: 80

Q: And the “Rice plant response rating (0 to 100 scale)” value ([22]; 125 g ai/ha)?
A: 20

Q: What about the “Plant response rating, Rice” value ([22]; 500 g ai/ha, visual rating) of the same compound?
A: 50
